Key:
STAT6 = molecular target: T1, STAT6 (Homo sapiens, UniProt P42226); experiment: Stat6 Degrader Assay (HiBiT based, HeLa LgBiT clone 4.14); format: cell-based; settings: HeLa LgBiT clone 4.14 HiBiT-STAT6, 4-24 h incubation; values given for compounds with >80% Emax; geometric mean; read-out: STAT6 degradation DC50
T1 construct: These cells express endogenous STAT6; host or cells: HeLa LgBiT clone 4.14
T1 sequence (P42226 1-847): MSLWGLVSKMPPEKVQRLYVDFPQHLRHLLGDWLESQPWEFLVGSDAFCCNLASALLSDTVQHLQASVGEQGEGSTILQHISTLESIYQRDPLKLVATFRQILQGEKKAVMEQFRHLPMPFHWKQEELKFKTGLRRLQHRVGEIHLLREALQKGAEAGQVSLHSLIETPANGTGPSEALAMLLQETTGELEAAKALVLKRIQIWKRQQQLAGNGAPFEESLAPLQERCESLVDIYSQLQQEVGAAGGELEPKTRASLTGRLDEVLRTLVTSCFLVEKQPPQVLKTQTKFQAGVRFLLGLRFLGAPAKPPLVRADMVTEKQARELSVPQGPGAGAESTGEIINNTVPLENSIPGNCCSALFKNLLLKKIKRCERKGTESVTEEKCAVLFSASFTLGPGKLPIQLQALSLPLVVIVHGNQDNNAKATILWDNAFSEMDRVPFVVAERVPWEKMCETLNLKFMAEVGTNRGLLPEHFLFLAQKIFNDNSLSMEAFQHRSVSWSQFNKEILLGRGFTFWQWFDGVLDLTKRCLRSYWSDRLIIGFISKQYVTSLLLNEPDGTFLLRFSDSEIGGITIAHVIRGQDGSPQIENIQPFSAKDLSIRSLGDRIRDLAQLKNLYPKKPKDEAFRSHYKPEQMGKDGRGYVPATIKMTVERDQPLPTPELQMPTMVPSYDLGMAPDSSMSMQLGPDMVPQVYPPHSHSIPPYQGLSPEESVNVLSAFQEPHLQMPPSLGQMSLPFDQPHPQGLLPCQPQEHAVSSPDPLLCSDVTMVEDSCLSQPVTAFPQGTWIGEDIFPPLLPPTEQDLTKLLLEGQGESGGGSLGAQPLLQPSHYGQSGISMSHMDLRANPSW
Outline: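 HeLa LgBiT clone 4.14 cells with CRISPR HiBiT-tagged endogenous STAT6, 5000 cells/well, compound dosed then incubated 4-24 h at 37° C, 5% CO2. Nano-Glo substrate added, 0.5 h, luminescence read as non-degraded STAT6. Terfenadine 50 μM (cell kill) defines 100% degradation.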

[1] = tested on: Eotaxin-3 release in human whole blood stimulated with IL-4; experiment: Human Whole Blood Eotaxin-3 Assay (IL-4 stimulated eotaxin-3 release); format: cell-based; settings: IL-4 stimulation, 48 h, values given for compounds with >80% Emax, geometric mean
Outline: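 Lithium-heparin human whole blood preincubated 2 h at 37° C with 4-fold serially diluted compounds (0.5% DMSO), then stimulated with recombinant human IL-4 ([…]) for 48 h. Eotaxin-3 (CCL26) in supernatant quantified by MSD immunoassay.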

Structure (SMILES) | DC50 (STAT6) [nM] | EC50 [1] [nM]
CNc1ccn(-c2ccnc3c2cc(CN2CCC(c4c(F)cc(C(=O)N5CCC(CN6CCN(Cc7ccc8c(c7)C(C)(C)C(=O)N8[C@@H]7CCC(=O)NC7=O)C[C@@H]6C)CC5)cc4F)CC2)n3C)c(=O)c1 (single isomer, unassigned) [Example 3u206] | 0.4 | 10.9
CNc1cc(=O)n(-c2ccnc3c2cc(CN2CCC(c4c(F)cc(C(=O)N5CCC(CN6CCN(Cc7ccc8c(c7)n(C)c(=O)n8[C@H]7CCC(=O)NC7=O)CC6)CC5)cc4F)CC2)n3C)cc1F (single isomer, unassigned) [Example 3u27] | 2 | 5.7
C[C@H]1CN(Cc2ccc3c(c2)C(C)(C)C(=O)N3[C@H]2CCC(=O)NC2=O)CCN1CC1CCN(C(=O)c2ccc(C3CCN([C@@H](C)c4cc5c(-n6ccc7c(c6=O)CCN7)ccnc5n4C)CC3)cc2)CC1 (single isomer, unassigned) [Example 3u185] | 2.8 | 2.3
CNc1cc(=O)n(-c2ccnc3c2cc(CN2CC=C(c4c(F)cc(C(=O)N5CCC(CN6CCN(Cc7ccc8c(c7)n(C7CC7)c(=O)n8C7CCC(=O)NC7=O)C[C@@H]6C)CC5)cc4F)CC2)n3C)cc1F (stereo partly drawn) [Example 3u213, 3-(3-cyclopropyl-5-(((S)-4-((1-(3,5-difluoro-4-(1-((4-(5-fluoro-4-(methylamino)-2-oxopyridin-1 (2H)-yl)-1-methyl-1H-pyrrolo[2,3-b]pyridin-2-yl)methyl)-1,2,3,6-tetrahydropyridin-4-yl)benzoyl)piperidin-4-yl)methyl)-3-methylpiperazin-1-yl)methyl)-2-oxo-2,3-dihydro-1H-benzo[d]imidazol-1-yl)piperidine-2,6-dione] | 8.6 | 13.2
CNc1ccn(-c2ccnc3c2cc(CN2CCC(c4c(F)cc(C(=O)N5CCC(CN6CCN(Cc7ccc8c(c7)n(C7CC7)c(=O)n8[C@H]7CCC(=O)NC7=O)C[C@@H]6C)CC5)cc4F)CC2)n3C)c(=O)c1 (single isomer, unassigned) [Example 3u217] | 1.8 | 0.6
CNc1ccn(-c2ccnc3c2cc(CN2CCC(c4c(F)cc(C(=O)N5CCC(CN6CCN(Cc7ccc8c(c7)n(C)c(=O)n8C7CCC(=O)NC7=O)CC6)CC5)cc4F)CC2)n3C)c(=O)c1 (centres unmarked) [Example 3u29, 3-(5-((4-((1-(3,5-difluoro-4-(1-((1-methyl-4-(4-(methylamino)-2-oxopyridin-1 (2H)-yl)-1H-pyrrolo[2,3-b]pyridin-2-yl)methyl)piperidin-4-yl)benzoyl)piperidin-4-yl)methyl)piperazin-1-yl)methyl)-3-methyl-2-oxo-2,3-dihydro-1H-benzo[d]imidazol-1-yl)piperidine-2,6-dione] | 1.7 | 0.9
C[C@H]1CN(Cc2ccc3c(c2)C(C)(C)C(=O)N3[C@@H]2CCC(=O)NC2=O)CCN1CC1CCN(C(=O)c2ccc(C3CCN([C@@H](C)c4cc5c(-n6ccc7c(c6=O)CCN7)ccnc5n4C)CC3)cc2)CC1 (single isomer, unassigned) [Example 3u186] | 3.5 | 4.6

Continued, values first:

DC50 (STAT6) [nM] | EC50 [1] [nM] | Structure (SMILES)
3.5 | 15.2 | CNc1cc(=O)n(-c2ccnc3c2cc([C@H](C)N2CC=C(c4c(C)cc(C(=O)N5CCC(CN6CCN(Cc7ccc8c(c7)C(C)(C)C(=O)N8C7CCC(=O)NC7=O)CC6)CC5)cc4F)CC2)n3C)cc1F (stereo partly drawn) [Example 3u87, 3-(5-((4-((1-(3-fluoro-4-(1-((S)-1-(4-(5-fluoro-4-(methylamino)-2-oxopyridin-1 (2H)-yl)-1-methyl-1H-pyrrolo[2,3-b]pyridin-2-yl)ethyl)-1,2,3,6-tetrahydropyridin-4-yl)-5-methylbenzoyl)piperidin-4-yl)methyl)piperazin-1-yl)methyl)-3,3-dimethyl-2-oxoindolin-1-yl)piperidine-2,6-dione]
1.4 | 5.8 | CNc1cc(=O)n(-c2ccnc3c2cc([C@H](C)N2CC=C(c4c(C)cc(C(=O)N5CCC(CN6CCN(Cc7ccc8c(c7)C7(CC7)C(=O)N8[C@H]7CCC(=O)NC7=O)CC6)CC5)cc4F)CC2)n3C)cc1F (single isomer, unassigned) [Example 3u67]
3.9 | 4.5 | CNc1ccn(-c2ccnc3c2cc(CN2CC=C(c4c(F)cc(C(=O)N5CCC(CN6CCN(Cc7ccc8c(c7)C(C)(C)C(=O)N8C7CCC(=O)NC7=O)C[C@@H]6C)CC5)cc4F)CC2)n3C)c(=O)c1 (stereo partly drawn) [Example 3u45, 3-(5-(((S)-4-((1-(3,5-difluoro-4-(1-((1-methyl-4-(4-(methylamino)-2-oxopyridin-1 (2H)-yl)-1H-pyrrolo[2,3-b]pyridin-2-yl)methyl)-1,2,3,6-tetrahydropyridin-4-yl)benzoyl)piperidin-4-yl)methyl)-3-methylpiperazin-1-yl)methyl)-3,3-dimethyl-2-oxoindolin-1-yl)piperidine-2,6-dione]
2.5 | 2 | Cc1cc(C(=O)N2CCC(CN3CCN(Cc4ccc5c(c4)C4(CC4)C(=O)N5C4CCC(=O)NC4=O)C[C@@H]3C)CC2)cc(F)c1C1=CCN([C@@H](C)c2cc3c(-n4cc(F)c(N)c(F)c4=O)ccnc3n2C)CC1 (stereo partly drawn) [Example 3u121, 3-(5′-(((S)-4-((1-(4-(1-((S)-1-(4-(4-amino-3,5-difluoro-2-oxopyridin-1 (2H)-yl)-1-methyl-1H-pyrrolo[2,3-b]pyridin-2-yl)ethyl)-1,2,3,6-tetrahydropyridin-4-yl)-3-fluoro-5-methyl-benzoyl)piperidin-4-yl)methyl)-3-methylpiperazin-1-yl)methyl)-2′-oxospiro[cyclopropane-1,3′-indolin]-1′-yl)piperidine-2,6-dione]
0.6 | 0.5 | CNc1ccn(-c2ccnc3c2cc([C@H](C)N2CC=C(c4c(C)cc(C(=O)N5CCC(CN6CCN(Cc7cc8c(cc7F)n([C@@H]7CCC(=O)NC7=O)c(=O)n8C)CC6)CC5)cc4F)CC2)n3C)c(=O)c1 (single isomer, unassigned) [Example 3u12]
1.7 | 3.1 | CNc1cc(=O)n(-c2ccnc3c2cc([C@H](C)N2CC=C(c4c(C)cc(C(=O)N5CCC(CN6CCN(Cc7ccc8c(c7)C7(CC7)C(=O)N8[C@@H]7CCC(=O)NC7=O)C[C@@H]6C)CC5)cc4F)CC2)n3C)cc1F (single isomer, unassigned) [Example 3u100]
0.8 | 5 | CNc1ccn(-c2ccnc3c2cc([C@H](C)N2CCC(c4c(F)cc(C(=O)N5CCC(CN6CCN(Cc7ccc8c(c7)C(C)(C)C(=O)N8C7CCC(=O)NC7=O)C[C@@H]6C)CC5)cc4F)CC2)n3C)c(=O)c1 (stereo partly drawn) [Example 3u80, 3-(5-(((S)-4-((1-(3,5-difluoro-4-(1-((S)-1-(1-methyl-4-(4-(methylamino)-2-oxopyridin-1 (2H)-yl)-1H-pyrrolo[2,3-b]pyridin-2-yl)ethyl)piperidin-4-yl)benzoyl)piperidin-4-yl)methyl)-3-methyl-piperazin-1-yl)methyl)-3,3-dimethyl-2-oxoindolin-1-yl)piperidine-2,6-dione]
1.4 | 1.1 | CNc1ccn(-c2ccnc3c2cc([C@H](C)N2CC=C(c4c(C)cc(C(=O)N5CCC(CN6CCN(c7cc8c(cc7F)n([C@H]7CCC(=O)NC7=O)c(=O)n8C)CC6)CC5)cc4F)CC2)n3C)c(=O)c1 (single isomer, unassigned) [Example 3u307]
22.6 | 24 | CNc1cc(=O)n(-c2ccnc3c2cc([C@H](C)N2CC=C(c4c(C)cc(C(=O)N5CCC(CC6CCN(c7ccc8c(c7)C7(CC7)C(=O)N8C7CCC(=O)NC7=O)CC6)CC5)cc4F)CC2)n3C)cc1F (stereo partly drawn) [Example 3u284, 3-(5′-(4-((1-(3-fluoro-4-(1-((S)-1-(4-(5-fluoro-4-(methylamino)-2-oxopyridin-1 (2H)-yl)-1-methyl-1H-pyrrolo[2,3-b]pyridin-2-yl)ethyl)-1,2,3,6-tetrahydropyridin-4-yl)-5-methylbenzoyl)piperidin-4-yl)methyl)piperidin-1-yl)-2′-oxospiro[cyclopropane-1,3′-indolin]-1′-yl)piperidine-2,6-dione]
